The results in this text go back to article PMC8053108, “RPA2 winged-helix domain facilitates UNG-mediated removal of uracil from ssDNA; implications for repair of mutagenic uracil at the replication fork” (Nucleic Acids Research, 2021).

The assay deals with UNG2 or N-terminally truncated versions. In words: Uracil excision in presence of increasing amounts of purified free WH domain. Format: biochemical, human. To be noted: 0.4 nM enzyme, 0-50 μM purified WH domain, 100 nM DNA. As to the method:
3′-FAM-labelled, PAGE-purified oligonucleotide substrates were from Sigma-Aldrich. Unless otherwise indicated, the substrate (25 nt) harboured uracil at position 10 in a polyC sequence to avoid secondary structures (U10-25*: […]-FAM). Double-stranded substrate was generated by annealing (heating followed by slow cooling) U10-25* to a non-labelled complementary oligo (A16-25: […]). All assays were performed at 22°C in 10 mM Tris–HCl pH 7.5, 50 mM NaCl, 1 mM DTT, 0.1 mM EDTA, 0.5 mg/ml BSA.
Varying amounts of UNG were then added, and the mixtures incubated for 10 min in a water bath. To avoid unspecific interactions and binding of enzyme and DNA to the assay tube surface, low-DNA binding tubes and excess of BSA was used in all reactions. Reactions were quenched and AP sites cleaved in 10% piperidine at 90°C for 20 min. Samples were dried by vacuum centrifugation and suspended in formamide-containing loading buffer. Product and substrate were separated in 12% PAGE/7M urea–0.5× TBE gels, bands visualised in ChemiDoc™ Imager (Bio-Rad) and quantified by Image Lab software (Bio-Rad). Importantly, all assays in which two parameters were compared (e.g. RPA-coated versus naked substrate or WT versus mutated protein) were performed in parallel with the exact same DNA/protein dilutions.

Consider “WH domain: purified RPA2-WH domain, RPA2 residues 172-270”, for which the “effect on uracil excision from naked ss- and dsDNA substrates” value is given as “little effect”. In addition, under “RPA-bound”, the “effect on uracil excision from RPA-bound ss- and dsDNA substrates” value is reported as “markedly reduced”.
